Results reported in ChEMBL document CHEMBL3046086, “In-silico design, synthesis and evaluation of novel DNA-gyrase B inhibitors” (2013).

How the values were obtained:
[1] = system: Staphylococcus aureus; assay: Antibacterial activity against Staphylococcus aureus assessed as growth inhibition at 1500 uM after 24 hr by agar well diffusion method; assay type: functional; conditions: read-out: IZ
[2] = system: Escherichia coli; assay: Antibacterial activity against Escherichia coli assessed as growth inhibition at 1500 uM after 24 hr by agar well diffusion method; assay type: functional; conditions: read-out: IZ

SMILES	zone of inhibition at 1500 µM [1] [mm]	zone of inhibition at 1500 µM [2] [mm]
O=C(O)c1cn(C2CC2)c2cc(N3CCNCC3)c(F)cc2c1=O [CIPROFLOXACIN]	15	
Cc1cc(=O)[nH]c2cc(Nc3ccc(C(=O)O)cc3)ccc12	13.5	12.8
Cc1cc(=O)[nH]c2cc(Nc3ccccc3C(=O)O)ccc12	8	7
Cc1cc(O)nc2cc(N)ccc12	5.5	4
Cc1cc(=O)[nH]c2cc(Nc3ccncc3C(=O)O)ccc12	9	7
Cc1cc(=O)[nH]c2cc(Nc3cnc(C(=O)O)cn3)ccc12	9	8.5
Cc1cc(=O)[nH]c2cc(Nc3nccnc3C(=O)O)ccc12	7.5	8
Cc1cc(=O)[nH]c2cc(Nc3cccc(C(=O)O)c3)ccc12	7	7
Cc1cc(=O)[nH]c2cc(Nc3ccc(C(=O)O)cn3)ccc12	3	
Cc1cc(=O)[nH]c2cc(Nc3ncccc3C(=O)O)ccc12	5	4.2
